Assay: recombinant UMI read abundance after kanamycin selection (control-corrected) (log10(CPM+1)); higher = more efficient recombination; extreme values may be limits of the assay; sequences stand for … in AGTGCAGAGAAAATCGGCCAGTTTTCTCTGCCTGCAGTCCGCATGCCGTGGGACCCCTTGGGTTCTAACCTGTTGCCTAGATTTATGCAGCGGACTGCCTTTCTCCCAAAGTGATAAACCGG…AGGTTGGTTTCACT; site = the 11-nt donor
Outline: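 Sequenced counts of recombinant UMIs were turned into CPM, averaged across replicates and scaled with control-derived factors. The reported figure is log10(CPM+1). Those UMIs, each 12 nt long, tagged donor and donor-binding-loop pairs on a plasmid with a promoterless kanamycin gene, screened as a pool in Escherichia coli with IPTG (0.07 mM) plus kanamycin or without selection.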
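Also: IS621 bridge recombinase in Escherichia coli cells against a fixed T5 target plasmid.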

| Sequence | recombinant UMI read abundance (log10) |
| --- | --- |
| CTACTATCATGGACCGGTTTTCCCGGTAATCCGTATTTGGA (site CTACTAGCTTC) | 0.0148 |
| CTACTATCATGGACCGGTTTTCCCGGTAATCCGTATTTGGA (site CTACTATCTTC) | 2.71 |
| CTAGAATCATGGACCGGTTTTCCCGGTAATCCGTATTTGTC (site CTAGAATCTGA) | 2.71 |
| CTAGAATCATGGACCGGTTTTCCCGGTAATCCGTATTTGTC (site CTAGTATCTGT) | 0.307 |
| CTAGACTCATGGACCGGTTTTCCCGGTAATCCGTATTTGAC (site CTAGACTCTGT) | 3.29 |
| CTAGACTCATGGACCGGTTTTCCCGGTAATCCGTATTTGAC (site CTAGTATCTGT) | 0 |
| CTAGACTCATGGACCGGTTTTCCCGGTAATCCGTATTTGCT (site CTAGACTCTAG) | 3.32 |
| CTAGAGACATGGACCGGTTTTCCCGGTAATCCGTATTTGTC (site CTAGAGACTGA) | 2.28 |
| CTAGCATCATGGACCGGTTTTCCCGGTAATCCGTATTTGAC (site CTAGAATCTGT) | 0.337 |
| CTAGCATCATGGACCGGTTTTCCCGGTAATCCGTATTTGAC (site CTAGCATCTGT) | 3.04 |
| CTAGCATCATGGACCGGTTTTCCCGGTAATCCGTATTTGAC (site CTAGGATCTGT) | 0.773 |
| CTAGCATCATGGACCGGTTTTCCCGGTAATCCGTATTTGAC (site CTAGTATCTGT) | 2.13 |
| CTAGCGACATGGACCGGTTTTCCCGGTAATCCGTATTTGCC (site CTAGCGACTGG) | 3.09 |
| CTAGCTTCATGGACCGGTTTTCCCGGTAATCCGTATTTGAC (site CTAGCTTCTGT) | 2.18 |
| CTAGCTTCATGGACCGGTTTTCCCGGTAATCCGTATTTGAC (site CTAGTATCTGT) | 0 |
| CTAGGACCATGGACCGGTTTTCCCGGTAATCCGTATTTGAC (site CTAGGACCTGT) | 0 |
| CTAGGACCATGGACCGGTTTTCCCGGTAATCCGTATTTGAC (site CTAGTATCTGT) | 0.00955 |
| CTAGGATCATGGACCGGTTTTCCCGGTAATCCGTATTTGAT (site CTAGGATCTAT) | 1.95 |
| CTAGGATCATGGACCGGTTTTCCCGGTAATCCGTATTTGAT (site CTAGTATCTGT) | 0.00727 |
| CTAGGATCATGGACCGGTTTTCCCGGTAATCCGTATTTGGC (site CTAGGATCTGC) | 2.55 |
| CTAGGATCATGGACCGGTTTTCCCGGTAATCCGTATTTGGC (site CTAGTATCTGT) | 0.606 |
| CTAGGGTCATGGACCGGTTTTCCCGGTAATCCGTATTTGAC (site CTAGGGTCTGT) | 1.41 |
| CTAGGGTCATGGACCGGTTTTCCCGGTAATCCGTATTTGAC (site CTAGTATCTGT) | 1.43 |
| CTAGGTTCATGGACCGGTTTTCCCGGTAATCCGTATTTGCG (site CTAGGTTCTCG) | 2.47 |
| CTAGTAGCATGGACCGGTTTTCCCGGTAATCCGTATTTGAA (site CTAGTAGCTTT) | 2.15 |

| Sequence | recombinant UMI read abundance (log10) |
| --- | --- |
| CTAGTAGCATGGACCGGTTTTCCCGGTAATCCGTATTTGAA (site CTAGTATCTGT) | 0 |
| CTAGTATCATGGACCGGTTTTCCCGGTAATCCGTATTTGAC (site ACAGTATCTGT) | 0.654 |
| CTAGTATCATGGACCGGTTTTCCCGGTAATCCGTATTTGAC (site ATACTATCTGT) | 0.00668 |
| CTAGTATCATGGACCGGTTTTCCCGGTAATCCGTATTTGAC (site ATAGCATCTGT) | 0 |
| CTAGTATCATGGACCGGTTTTCCCGGTAATCCGTATTTGAC (site ATAGTAGCTGT) | 0.00849 |
| CTAGTATCATGGACCGGTTTTCCCGGTAATCCGTATTTGAC (site ATAGTATCTGG) | 0.298 |
| CTAGTATCATGGACCGGTTTTCCCGGTAATCCGTATTTGAC (site ATAGTATCTGT) | 0.432 |
| CTAGTATCATGGACCGGTTTTCCCGGTAATCCGTATTTGAC (site ATAGTATCTTT) | 0.00657 |
| CTAGTATCATGGACCGGTTTTCCCGGTAATCCGTATTTGAC (site ATAGTTTCTGT) | 0 |
| CTAGTATCATGGACCGGTTTTCCCGGTAATCCGTATTTGAC (site ATGGTATCTGT) | 0.837 |
| CTAGTATCATGGACCGGTTTTCCCGGTAATCCGTATTTGAC (site CAAATATCTGT) | 0 |
| CTAGTATCATGGACCGGTTTTCCCGGTAATCCGTATTTGAC (site CAAGAATCTGT) | 0 |
| CTAGTATCATGGACCGGTTTTCCCGGTAATCCGTATTTGAC (site CAAGTAACTGT) | 0.0563 |
| CTAGTATCATGGACCGGTTTTCCCGGTAATCCGTATTTGAC (site CAAGTATCTCT) | 0.473 |
| CTAGTATCATGGACCGGTTTTCCCGGTAATCCGTATTTGAC (site CAAGTATCTGA) | 0 |
| CTAGTATCATGGACCGGTTTTCCCGGTAATCCGTATTTGAC (site CAAGTATCTGT) | 2.47 |
| CTAGTATCATGGACCGGTTTTCCCGGTAATCCGTATTTGAC (site CAAGTCTCTGT) | 0 |
| CTAGTATCATGGACCGGTTTTCCCGGTAATCCGTATTTGAC (site CACGTATCTGT) | 0.0166 |
| CTAGTATCATGGACCGGTTTTCCCGGTAATCCGTATTTGAC (site CCACTATCTGT) | 0 |
| CTAGTATCATGGACCGGTTTTCCCGGTAATCCGTATTTGAC (site CCAGCATCTGT) | 0.00896 |
| CTAGTATCATGGACCGGTTTTCCCGGTAATCCGTATTTGAC (site CCAGTAGCTGT) | 0 |
| CTAGTATCATGGACCGGTTTTCCCGGTAATCCGTATTTGAC (site CCAGTATCTGG) | 0 |
| CTAGTATCATGGACCGGTTTTCCCGGTAATCCGTATTTGAC (site CCAGTATCTGT) | 2.69 |
| CTAGTATCATGGACCGGTTTTCCCGGTAATCCGTATTTGAC (site CCAGTATCTTT) | 0.412 |
| CTAGTATCATGGACCGGTTTTCCCGGTAATCCGTATTTGAC (site CCAGTTTCTGT) | 0 |

| Sequence | recombinant UMI read abundance (log10) |
| --- | --- |
| CTAGTATCATGGACCGGTTTTCCCGGTAATCCGTATTTGAC (site CCGGTATCTGT) | 0.281 |
| CTAGTATCATGGACCGGTTTTCCCGGTAATCCGTATTTGAC (site CGAGGATCTGT) | 0 |
| CTAGTATCATGGACCGGTTTTCCCGGTAATCCGTATTTGAC (site CGAGTACCTGT) | 0 |
| CTAGTATCATGGACCGGTTTTCCCGGTAATCCGTATTTGAC (site CGAGTATCTAT) | 0 |
| CTAGTATCATGGACCGGTTTTCCCGGTAATCCGTATTTGAC (site CGAGTATCTGC) | 0 |
| CTAGTATCATGGACCGGTTTTCCCGGTAATCCGTATTTGAC (site CGAGTATCTGT) | 0.849 |
| CTAGTATCATGGACCGGTTTTCCCGGTAATCCGTATTTGAC (site CGAGTGTCTGT) | 0 |
| CTAGTATCATGGACCGGTTTTCCCGGTAATCCGTATTTGAC (site CGATTATCTGT) | 0 |
| CTAGTATCATGGACCGGTTTTCCCGGTAATCCGTATTTGAC (site CGTGTATCTGT) | 0 |
| CTAGTATCATGGACCGGTTTTCCCGGTAATCCGTATTTGAC (site CTAAAATCTGT) | 0 |
| CTAGTATCATGGACCGGTTTTCCCGGTAATCCGTATTTGAC (site CTAATAACTGT) | 0 |
| CTAGTATCATGGACCGGTTTTCCCGGTAATCCGTATTTGAC (site CTAATATCTCT) | 0.764 |
| CTAGTATCATGGACCGGTTTTCCCGGTAATCCGTATTTGAC (site CTAATATCTGA) | 0 |
| CTAGTATCATGGACCGGTTTTCCCGGTAATCCGTATTTGAC (site CTAATATCTGT) | 1.63 |
| CTAGTATCATGGACCGGTTTTCCCGGTAATCCGTATTTGAC (site CTAATCTCTGT) | 0 |
| CTAGTATCATGGACCGGTTTTCCCGGTAATCCGTATTTGAC (site CTACCATCTGT) | 0 |
| CTAGTATCATGGACCGGTTTTCCCGGTAATCCGTATTTGAC (site CTACTAGCTGT) | 0 |
| CTAGTATCATGGACCGGTTTTCCCGGTAATCCGTATTTGAC (site CTACTATCTGG) | 0 |
| CTAGTATCATGGACCGGTTTTCCCGGTAATCCGTATTTGAC (site CTACTATCTGT) | 0.925 |
| CTAGTATCATGGACCGGTTTTCCCGGTAATCCGTATTTGAC (site CTACTATCTTT) | 0.0334 |
| CTAGTATCATGGACCGGTTTTCCCGGTAATCCGTATTTGAC (site CTACTTTCTGT) | 0 |
| CTAGTATCATGGACCGGTTTTCCCGGTAATCCGTATTTGAC (site CTAGAAACTGT) | 0 |
| CTAGTATCATGGACCGGTTTTCCCGGTAATCCGTATTTGAC (site CTAGAATCTCT) | 0 |
| CTAGTATCATGGACCGGTTTTCCCGGTAATCCGTATTTGAC (site CTAGAATCTGA) | 0 |
| CTAGTATCATGGACCGGTTTTCCCGGTAATCCGTATTTGAC (site CTAGAATCTGT) | 0.992 |

From the supplement of paper PMC11208160
